Results taken from patent US20030224942A1, “Alkylamino-1,3,5-triazines, processes for their preparation and their use as herbicides and plant growth regulators” (priority 2001, published 2003).

Columns and labels:
[1] = system: Chenopodium spp., Papaver spp., Polygonum spp., Veronica spp. or Viola spp.; assay: Post-emergence effect on weeds (greenhouse pot test, visual scoring); format: in vivo, monocotyledonous and dicotyledonous weeds; settings: treated at three-leaf stage; visual scoring after about 3 to 4 weeks; application rate of 0.5 kg and less of active substance per hectare
[2] = system: Cyperus spp., Echinochloa spp., Digitaria spp., Sagitaria spp. and Scirpus spp.; assay: Action on harmful plants in rice (paddy rice conditions, visual scoring); format: in vivo, typical rice weeds (gramineous and broad-leaved); settings: applied into the dammed water, visual scoring about three weeks after application
Procedure, shortened: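 Under paddy conditions with 2-3 cm dammed water, transplanted and sown rice plus weeds were treated at three-leaf stage (E. crus-galli at 1.5 leaves). Pots stayed in greenhouse under optimum growth conditions for the test period, with visual assessment of damage.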

| SMILES | herbicidal activity post-emergence against harmful plants [1] | herbicidal activity against harmful plants which are typical for rice crops [2] |
| --- | --- | --- |
| C#Cc1ccc(CNc2nc(N)nc(C(C)(C)F)n2)cc1 [Product P16.1580] | very good herbicidal activity | very good herbicidal activity |
| CCC(F)c1nc(N)nc(NC(C)c2ccc(F)c(C(F)=C(F)F)c2)n1 (stereo not shown) [Product P27.5] | very good herbicidal activity | very good herbicidal activity |
| C#Cc1c(F)cc(C(C)Nc2nc(N)nc(C(C)(C)F)n2)cc1F (stereo not shown) [Product P17.352] | very good herbicidal activity | very good herbicidal activity |
| Cc1nc(N)nc(NCc2ccc(F)c(C3CC3)c2)n1 [Product P1.916] | very good herbicidal activity | very good herbicidal activity |
| C#Cc1cc(C(C)Nc2nc(N)nc(C(F)CC)n2)ccc1F (stereo not shown) [Product P27.309] | very good herbicidal activity | very good herbicidal activity |
| C#Cc1ccc(C(C)Nc2nc(N)nc(C(C)F)n2)cc1C (stereo not shown) [Product P22.335] | very good herbicidal activity | very good herbicidal activity |
| CC#Cc1ccc(CNc2nc(N)nc(CC)n2)cc1 [Product P6.1583] | very good herbicidal activity | very good herbicidal activity |
| CC(F)c1nc(N)nc(NCc2ccc(C(F)=C(F)F)cc2)n1 (stereo not shown) [Product P21.1568] | very good herbicidal activity | very good herbicidal activity |
| C#Cc1cc(C(C)Nc2nc(C)nc(N)n2)ccc1F (stereo not shown) [Product P2.309] | very good herbicidal activity | very good herbicidal activity |
| CC(Nc1nc(N)nc(C(C)(C)F)n1)c1ccc(C(F)=C(F)F)cc1 (stereo not shown) [Product P17.1568] | very good herbicidal activity | very good herbicidal activity |
| C#Cc1ccc(C(Nc2nc(N)nc(C(C)(C)F)n2)C2CC2)cc1 (stereo not shown) [Product P19.1580] | very good herbicidal activity | very good herbicidal activity |
| CC(F)c1nc(N)nc(NC(C)c2cccc(C(F)=C(F)F)c2)n1 (stereo not shown) [Product P22.1567] | very good herbicidal activity | very good herbicidal activity |
| CC#Cc1c(F)cc(CNc2nc(N)nc(C(F)CC)n2)cc1F (stereo not shown) [Product P26.428] | very good herbicidal activity | very good herbicidal activity |
| CCc1nc(N)nc(NCc2cc(F)c(C3CC3)c(F)c2)n1 [Product P6.960] | very good herbicidal activity | very good herbicidal activity |
| CC(F)C#Cc1cc(C(C)Nc2nc(N)nc(C(C)F)n2)ccc1F (stereo not shown) [Product P22.764] | very good herbicidal activity | very good herbicidal activity |
| C#Cc1c(F)cc(C(Nc2nc(N)nc(C(C)C)n2)C2CC2)cc1F (stereo not shown) [Product P14.352] | very good herbicidal activity | very good herbicidal activity |
| Cc1nc(N)nc(NC(C)c2ccc(C3CC3)cc2)n1 (stereo not shown) [Product P2.1604] | very good herbicidal activity | very good herbicidal activity |
| C#Cc1cc(C#C)cc(C(C)Nc2nc(N)nc(C(C)(C)F)n2)c1 (stereo not shown) [Product P17.369] | very good herbicidal activity | very good herbicidal activity |
| CC#Cc1cc(C(C)Nc2nc(N)nc(CC)n2)ccc1F (stereo not shown) [Product P7.384] | very good herbicidal activity | very good herbicidal activity |
| C#Cc1c(F)cc(C(Nc2nc(N)nc(CC)n2)C2CC2)cc1F (stereo not shown) [Product P9.352] | very good herbicidal activity | very good herbicidal activity |
| CC(F)c1nc(N)nc(NCc2ccc(F)c(C3CC3)c2)n1 (stereo not shown) [Product P21.916] | very good herbicidal activity | very good herbicidal activity |

| SMILES | herbicidal activity post-emergence against harmful plants [1] | herbicidal activity against harmful plants which are typical for rice crops [2] |
| --- | --- | --- |
| CC#Cc1c(F)cc(C(C)Nc2nc(C)nc(N)n2)cc1F (stereo not shown) [Product P2.428] | very good herbicidal activity | very good herbicidal activity |
| CC(C)(F)c1nc(N)nc(NCc2cccc(C3CC3)c2)n1 [Product P16.1603] | very good herbicidal activity | very good herbicidal activity |
| CCC(F)c1nc(N)nc(NC(C)c2cccc(C3CC3)c2)n1 (stereo not shown) [Product P27.1603] | very good herbicidal activity | very good herbicidal activity |
| CC(C)c1nc(N)nc(NC(C)c2ccc(C3CC3)cc2)n1 (stereo not shown) [Product P12.1604] | very good herbicidal activity | very good herbicidal activity |
| C#Cc1ccc(C(C)Nc2nc(N)nc(C(C)F)n2)cc1 (stereo not shown) [Product P22.1580] | very good herbicidal activity | very good herbicidal activity |
| C#Cc1ccc(CNc2nc(N)nc(C(C)C)n2)cc1 [Product P11.1580] | very good herbicidal activity | very good herbicidal activity |
| CC(O)C#Cc1cc(C(C)Nc2nc(N)nc(C(C)(C)F)n2)ccc1F (stereo not shown) [Product P17.840] | very good herbicidal activity | very good herbicidal activity |
| CC(Nc1nc(N)nc(C(C)(C)F)n1)c1ccc(F)c(C(F)=C(F)F)c1 (stereo not shown) [Product P17.5] | very good herbicidal activity | very good herbicidal activity |
| CC(C)(F)c1nc(N)nc(NCc2cc(F)c(C(F)=C(F)F)c(F)c2)n1 [Product P16.49] | very good herbicidal activity | very good herbicidal activity |
| C#Cc1ccc(C(C)Nc2nc(N)nc(CC)n2)cc1 (stereo not shown) [Product P7.1580] | very good herbicidal activity | very good herbicidal activity |
| C#Cc1cccc(C(Nc2nc(N)nc(C(C)F)n2)C2CC2)c1 (stereo not shown) [Product P24.1579] | very good herbicidal activity | very good herbicidal activity |
| CC(C)(F)c1nc(N)nc(NCc2ccc(F)c(C3CC3)c2)n1 [Product P16.916] | very good herbicidal activity | very good herbicidal activity |
| CC(C)c1nc(N)nc(NC(C)c2ccc(F)c(C(F)=C(F)F)c2)n1 (stereo not shown) [Product P12.5] | very good herbicidal activity | very good herbicidal activity |
| CC(C)c1nc(N)nc(NC(c2cccc(C3CC3)c2)C2CC2)n1 (stereo not shown) [Product P14.1603] | very good herbicidal activity | very good herbicidal activity |
| CCC(F)c1nc(N)nc(NC(c2ccc(C(F)=C(F)F)cc2)C2CC2)n1 (stereo not shown) [Product P29.1568] | very good herbicidal activity | very good herbicidal activity |
| CCc1nc(N)nc(NCc2ccc(C3CC3)cc2)n1 [Product P6.1604] | very good herbicidal activity | very good herbicidal activity |
| CC#Cc1cc(C(C)Nc2nc(N)nc(C(C)(C)F)n2)cc(C#CC)c1F (stereo not shown) [Product P17.450] | very good herbicidal activity | very good herbicidal activity |
| CC(C)c1nc(N)nc(NCc2cccc(C(F)=C(F)F)c2)n1 [Product P11.1567] | very good herbicidal activity | very good herbicidal activity |
| C#Cc1ccc(C(Nc2nc(N)nc(C(F)CC)n2)C2CC2)cc1 (stereo not shown) [Product P29.1580] | very good herbicidal activity | very good herbicidal activity |
| Cc1nc(N)nc(NC(C)c2cccc(C(F)=C(F)F)c2)n1 (stereo not shown) [Product P2.1567] | very good herbicidal activity | very good herbicidal activity |
